Assay results taken from US10111437B2, “Substituted guanidines as fungicides” (Nippon Soda Co., Ltd., priority 2015, dated 2018).

Experiments:
[1] = test system: cucumber gray mold fungus (Botrytis cinerea); test: Cucumber gray mold control test (foliar spray on cucumber seedlings); conditions: in Cucumis sativus, 96 h, read-out: control value
[2] = test system: Tomato late blight fungus (Phytophthora infestans); test: whole plant or invertebrate; type: in vivo; conditions: foliar, 96 h, read-out: control value
[3] = test system: wheat leaf rust fungus (Puccinia recondita); test: Wheat leaf rust control test (foliar spray on wheat seedlings); type: in vivo; conditions: 240 h, 125 ppm active ingredient, sprayed on wheat seedlings (variety Norin 61) before inoculation, 10 days, vs untreated
[4] = test system: Apple scab fungus (Venturia inaequalis); test: Apple scab control test (foliar spray on apple seedlings); type: in vivo; conditions: 125 ppm active ingredient, sprayed on apple seedlings (variety Orin) before inoculation, vs untreated
Experimental: The dilution was sprayed to apple seedlings (variety “Orin”, 3 to 4 leaf stage) grown in clay pots. […] The control value was calculated by the following equation. [formula]

Measured: pest or weed control at 125 ppm

N=C(N)c1ccc(OCCCCN2CCN(CCCCOc3ccc(C(=N)N)cc3)C2=N)cc1 [compound 6, 4-[4-[3-[4-(4-carbamimidoylphenoxy)butyl]-2-imino-imidazolidin-1-yl]butoxy]benzamidine]
≥ 75%: all assays above

N=C(N)NCCCCCCCN1CCN(CCCCCCCNC(=N)N)C1=N [compound 8, 1-[7-[3-(7-guanidinoheptyl)-2-imino-imidazolidin-1-yl]heptyl]guanidine]
≥ 75%: all assays above

N=C(NCCCCOc1ccc(C(=N)N)cc1)NCCCCOc1ccc(C(=N)N)cc1 [compound 10, 4-[4-[[N-[4-(4-carbamimidoylphenoxy)butyl]carbamimidoyl]amino]butoxy]benzamidine]
≥ 75%: all assays above

N=C(NCCCC#Cc1ccc(C(=N)N)cc1)NCCCC#Cc1ccc(C(=N)N)cc1 [compound 22, 4-[5-[[N-[5-(4-carbamimidoylphenyl)pent-4-ynyl]carbamimidoyl]amino]pent-1-ynyl]benzamidine]
≥ 75%: all assays above

N=C(N)NCCCCCCCn1ccn(CCCOc2ccc(C(=N)N)cc2)c1=N [compound 25, 4-[3-[3-(7-guanidinoheptyl)-2-imino-imidazol-1-yl]propoxy]benzamidine]
≥ 75%: all assays above

N=C(N)NCCCCCCCNC(=N)NCCCOc1ccc(C(=N)N)cc1 [compound 29, 4-[3-[[N-(7-guanidinoheptyl)carbamimidoyl]amino]propoxy]benzamidine]
≥ 75%: all assays above

N=C(N)NCCCCCCCNC(=N)NCCCCOc1ccc(C(=N)N)cn1 [compound 32, 6-(4-(3-(7-guanidinoheptyl)guanidino)butoxy)nicotinimidamide]
≥ 75%: all assays above

N=C(N)NCCCCCCCNC(=N)NCCCc1cc2cc(C(=N)N)ccc2o1 [compound 34, 2-(3-(3-(7-guanidinoheptyl)guanidino)propyl)benzofuran-5-carboximidamide]
≥ 75%: all assays above

N=C(N)c1ccc(OCCCCn2ccn(CCCOc3ccc(C(=N)N)cc3)c2=N)cc1 [compound 40, 4-[4-[3-[3-(4-carbamimidoylphenoxy)propyl]-2-imino-imidazol-1-yl]butoxy]benzamidine]
≥ 75%: all assays above

N=C(NCCCOc1ccc(C(=N)N)cc1)NCCCOc1ccc(C(=N)N)cc1 [compound 42, 4-[3-[[N-[3-(4-carbamimidoylphenoxy)propyl]carbamimidoyl]amino]propoxy]benzamidine]
≥ 75%: all assays above

N=C(N)NCCCCCCCn1ccn(CCCCOc2ccc(C(=N)N)cc2)c1=N [compound 52, 4-[4-[3-(7-guanidinoheptyl)-2-imino-imidazol-1-yl]butoxy]benzamidine]
≥ 75%: all assays above

CN=C(NCCCOc1ccc(C(=N)N)cc1)NCCCOc1ccc(C(=N)N)cc1 [compound 57, 4-[3-[[N-[3-(4-carbamimidoylphenoxy)propyl]-N′-methyl-carbamimidoyl]amino]propoxy]benzamidine]
≥ 75%: all assays above

N=C(N)NCCCCCCCCNC(=N)NCCCCOc1ccc(C(=N)N)cn1 [compound 61, 6-[4-[[N-(8-guanidinooctyl)carbamimidoyl]amino]butoxy]pyridine-3-carboxamidine]
≥ 75%: all assays above

N=C(N)c1ccc(OCCCn2ccn(CCCOc3ccc(C(=N)N)cc3)c2=N)cc1 [compound 89]
≥ 75%: [2] | [3] | [4]

N=C(N)c1ccc(OCCCn2ccn(CCCOc3ccc(C(=N)N)c(F)c3)c2=N)cc1F [compound 103]
≥ 75%: all assays above

Cc1cn(CCCCOc2ccc(C(=N)N)cc2)c(=N)n1CCCCOc1ccc(C(=N)N)cc1 [compound 107]
≥ 75%: all assays above

Cc1c(C)n(CCCOc2ccc(C(=N)N)cc2)c(=N)n1CCCOc1ccc(C(=N)N)cc1 [compound 109]
≥ 75%: all assays above

N=C(N)NCCCCCCCCNC(=N)NCCCOc1ccc(C(=N)N)cc1Cl [compound 112]
≥ 75%: all assays above

Cc1cn(CCCOc2ccc(C(=N)N)cc2)c(=N)n1CCCOc1ccc(C(=N)N)cc1 [compound 114]
≥ 75%: all assays above

N=C(N)NCCCCCCCCNC(=N)NCCCOc1ccc(C(=N)N)cn1 [compound 120]
≥ 75%: all assays above

CNC(=N)c1ccc(OCCCn2ccn(CCCOc3ccc(C(=N)N)cc3)c2=N)cc1 [compound 122]
≥ 75%: all assays above

CNC(=N)c1ccc(OCCCCn2ccn(CCCOc3ccc(C(=N)N)cc3)c2=N)cc1 [compound 124]
≥ 75%: all assays above

N=C(N)c1ccc(OCCCn2ccn(CCCc3cc4cc(C(=N)N)ccc4o3)c2=N)cc1 [compound 126]
≥ 75%: all assays above

CN(CCCOc1ccc(C(=N)N)cc1)C(=N)NCCCCCCCCNC(=N)N [compound 128]
≥ 75%: all assays above

CN(C)/C(=N\CCCOc1ccc(C(=N)N)cc1)NCCCOc1ccc(C(=N)N)cc1 [compound 130]
≥ 75%: all assays above

N=C(N)NCCCCCCNC(=N)NCCCCOc1ccc(C(=N)N)cc1 [compound 136]
≥ 75%: all assays above

N=C(N)NCCCCCCCCn1ccn(CCOc2ccc(C3=NCCCN3)cc2)c1=N [compound 270]
≥ 75%: [2] | [3] | [4]

N=C(N)NCCCCCCCCn1ccn(CCOc2ccc(C(=N)N)cc2)c1=N [compound 281]
≥ 75%: [1] | [2] | [3]

N=C(N)NCCCCCCCCNC(=N)NCCOc1ccc2cc(C3=NCCCN3)ccc2c1 [compound 292]
≥ 75%: [2] | [3] | [4]
